Assay results published in ChEMBL document CHEMBL1201861, “Genomics of Drug Sensitity in Cancer screening data, Wellcome Trust Sanger Institute”.
pIC50: −log10 of the molar value.

Experiments:
Assay in all cases: cells
MZ2-MEL = type: functional, cell-based, Homo sapiens; settings: Homo sapiens, MZ2-MEL;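 also: growth inhibition of MZ2-MEL cells read out with a cell viability assay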
Description: SANGER: Inhibition of human MZ2-MEL cell growth in a cell viability assay.

OVCAR-4 = type: functional, cell-based, Homo sapiens; settings: Homo sapiens, OVCAR-4;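 also: growth inhibition of human OVCAR-4 cells, measured with a cell viability assay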
Description: SANGER: Inhibition of human OVCAR-4 cell growth in a cell viability assay.

NCI-H69 = type: functional, cell-based; settings: Homo sapiens;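 also: growth inhibition of the cell line, read out with a cell viability assay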
Description: SANGER: Inhibition of human NCI-H69 cell growth in a cell viability assay.

ESS-1 = type: functional, cell-based, Homo sapiens; settings: Homo sapiens, ESS-1;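 also: growth inhibition of human ESS-1 cells, read out by a cell viability assay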
Description: SANGER: Inhibition of human ESS-1 cell growth in a cell viability assay.

VM-CUB-1 = type: functional, cell-based; settings: Homo sapiens;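 also: cell viability assay measuring growth inhibition of the human VM-CUB-1 cell line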
Description: SANGER: Inhibition of human VM-CUB-1 cell growth in a cell viability assay.

CAL-54 = type: functional, cell-based, Homo sapiens; settings: Homo sapiens, CAL-54;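 also: growth inhibition of CAL-54 cells, read out by a viability measurement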
Description: SANGER: Inhibition of human CAL-54 cell growth in a cell viability assay.

A3-KAW = type: functional, cell-based; settings: Homo sapiens;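 also: growth inhibition of human A3-KAW cells, read out with a cell viability assay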
Description: SANGER: Inhibition of human A3-KAW cell growth in a cell viability assay.

HT-29 = type: functional, cell-based, Homo sapiens; settings: Homo sapiens, HT-29;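 also: growth inhibition of human HT-29 cells, read out by a cell viability assay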
Description: SANGER: Inhibition of human HT-29 cell growth in a cell viability assay.

DMS-273 = type: functional, cell-based, Homo sapiens; settings: Homo sapiens, DMS-273
Description: SANGER: Inhibition of human DMS-273 cell growth in a cell viability assay.

IST-MES1 = type: functional, cell-based, Homo sapiens; settings: Homo sapiens, IST-MES1;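 also: growth inhibition of IST-MES1 cells, measured with a cell viability assay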
Description: SANGER: Inhibition of human IST-MES1 cell growth in a cell viability assay.

MHH-NB-11 = type: functional, cell-based, Homo sapiens; settings: Homo sapiens, MHH-NB-11;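 also: growth inhibition of human MHH-NB-11 cells, read out by a cell viability assay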
Description: SANGER: Inhibition of human MHH-NB-11 cell growth in a cell viability assay.

NCI-H1793 = type: functional, cell-based, Homo sapiens; settings: Homo sapiens, NCI-H1793;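 also: cell growth inhibition, read out by a cell viability assay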
Description: SANGER: Inhibition of human NCI-H1793 cell growth in a cell viability assay.

SK-MEL-2 = type: functional, cell-based, Homo sapiens; settings: Homo sapiens, SK-MEL-2
Description: SANGER: Inhibition of human SK-MEL-2 cell growth in a cell viability assay.

MOLT-16 = type: functional, cell-based; settings: Homo sapiens;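 also: growth inhibition of human MOLT-16 cells, read out with a cell viability assay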
Description: SANGER: Inhibition of human MOLT-16 cell growth in a cell viability assay.

P12-Ichikawa = type: functional, cell-based; settings: Homo sapiens
MN-60 = type: functional, cell-based; settings: Homo sapiens;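 also: growth inhibition of the MN-60 cell line, determined with a cell viability assay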
Description: SANGER: Inhibition of human MN-60 cell growth in a cell viability assay.

SW837 = type: functional, cell-based, Homo sapiens; settings: Homo sapiens, SW837;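 also: growth inhibition of SW837 cells, determined with a cell viability assay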
Description: SANGER: Inhibition of human SW837 cell growth in a cell viability assay.

5637 = type: functional, cell-based, Homo sapiens; settings: Homo sapiens
Description: SANGER: Inhibition of human 5637 cell growth in a cell viability assay.

HOP-92 = type: functional, cell-based, Homo sapiens; settings: Homo sapiens, HOP-92;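 also: cell viability readout, with IC50 reflecting inhibition of HOP-92 cell growth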
Description: SANGER: Inhibition of human HOP-92 cell growth in a cell viability assay.

KYSE-70 cell line = type: functional, cell-based, Homo sapiens; settings: Homo sapiens, KYSE-70;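 also: cell viability assay read-out, with IC50 expressing suppression of KYSE-70 cell growth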
Description: SANGER: Inhibition of human KYSE-70 cell growth in a cell viability assay.

H4 = type: functional, cell-based; settings: Homo sapiens
Description: SANGER: Inhibition of human H4 cell growth in a cell viability assay.

LB1047-RCC = type: functional, cell-based, Homo sapiens; settings: Homo sapiens, LB1047-RCC;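 also: inhibition of cell growth, determined with a cell viability assay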
Description: SANGER: Inhibition of human LB1047-RCC cell growth in a cell viability assay.

KNS-81-FD = type: functional, cell-based, Homo sapiens; settings: Homo sapiens, KNS-81-FD;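 also: growth inhibition of KNS-81-FD cells, read out with a cell viability assay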
Description: SANGER: Inhibition of human KNS-81-FD cell growth in a cell viability assay.

HT1197 = type: functional, cell-based, Homo sapiens, HT-1197; settings: Homo sapiens, HT1197
Description: SANGER: Inhibition of human HT-1197 cell growth in a cell viability assay.

DB = type: functional, cell-based; settings: Homo sapiens
Description: SANGER: Inhibition of human DB cell growth in a cell viability assay.

D-502MG = type: functional, cell-based, Homo sapiens; settings: Homo sapiens, D-502MG
Description: SANGER: Inhibition of human D-502MG cell growth in a cell viability assay.

HPAF-II = type: functional, cell-based, Homo sapiens; settings: Homo sapiens, HPAF-II;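 also: growth inhibition of HPAF-II cells, read out with a cell viability assay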
Description: SANGER: Inhibition of human HPAF-II cell growth in a cell viability assay.

647-V = type: functional, cell-based, Homo sapiens; settings: Homo sapiens, 647-V;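 also: growth inhibition of 647-V cells, read out with a cell viability assay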
Description: SANGER: Inhibition of human 647-V cell growth in a cell viability assay.

A253 cell line = type: functional, cell-based, Homo sapiens; settings: Homo sapiens, A253;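 also: growth inhibition of A253 cells, read out with a cell viability assay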
Description: SANGER: Inhibition of human A253 cell growth in a cell viability assay.

ES6 = type: functional, cell-based, Homo sapiens; settings: Homo sapiens, ES6;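 also: growth inhibition of human ES6 cells, read out with a cell viability assay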
Description: SANGER: Inhibition of human ES6 cell growth in a cell viability assay.

SK-MES-1 = type: functional, cell-based, Homo sapiens; settings: Homo sapiens, SK-MES-1;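 also: growth inhibition of human SK-MES-1 cells, read out with a cell viability assay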
Description: SANGER: Inhibition of human SK-MES-1 cell growth in a cell viability assay.

TE-1 = type: functional, cell-based, Homo sapiens; settings: Homo sapiens, TE-1;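 also: growth inhibition of the human TE-1 cell line, read out with a cell viability assay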
Description: SANGER: Inhibition of human TE-1 cell growth in a cell viability assay.

SK-MEL-28 = type: functional, cell-based; settings: Homo sapiens;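 also: growth inhibition of human SK-MEL-28 cells, read out with a cell viability assay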
Description: SANGER: Inhibition of human SK-MEL-28 cell growth in a cell viability assay.

UACC-893 = type: functional, cell-based, Homo sapiens; settings: Homo sapiens, UACC-893
Description: SANGER: Inhibition of human UACC-893 cell growth in a cell viability assay.

TGW = type: functional, cell-based; settings: Homo sapiens;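 also: growth inhibition of human TGW cells, read out with a cell viability assay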
Description: SANGER: Inhibition of human TGW cell growth in a cell viability assay.

BT-474 = type: functional, cell-based, Homo sapiens; settings: Homo sapiens, BT-474
Description: SANGER: Inhibition of human BT-474 cell growth in a cell viability assay.

NCI-H1581 = type: functional, cell-based, Homo sapiens; settings: Homo sapiens, NCI-H1581;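 also: cell growth inhibition read out by a viability assay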
Description: SANGER: Inhibition of human NCI-H1581 cell growth in a cell viability assay.

MeWo = type: functional, cell-based, Homo sapiens; settings: Homo sapiens, MeWo;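 also: growth inhibition of MeWo cells, determined by a cell viability readout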
Description: SANGER: Inhibition of human Mewo cell growth in a cell viability assay.

MIA PaCa-2 = type: functional, cell-based, Homo sapiens; settings: Homo sapiens, MIA PaCa-2;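 also: growth inhibition of MIA PaCa-2 cells, read out with a cell viability assay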
Description: SANGER: Inhibition of human MIA-PaCa-2 cell growth in a cell viability assay.

NB6 = type: functional, cell-based, Homo sapiens; settings: Homo sapiens, NB6;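 also: growth inhibition of NB6 cells, read out by a cell viability assay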
Description: SANGER: Inhibition of human NB6 cell growth in a cell viability assay.

OVCAR-5 = type: functional, cell-based, Homo sapiens; settings: Homo sapiens, OVCAR-5;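 also: growth inhibition of human OVCAR-5 cells, read out with a cell viability assay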
Description: SANGER: Inhibition of human OVCAR-5 cell growth in a cell viability assay.

SF-539 = type: functional, cell-based, Homo sapiens; settings: Homo sapiens, SF-539;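 also: Read-out is a cell viability assay, with IC50 reflecting inhibition of cell growth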
Description: SANGER: Inhibition of human SF539 cell growth in a cell viability assay.

PA-1 = type: functional, cell-based, Homo sapiens; settings: Homo sapiens, PA-1;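 also: IC50 for suppression of PA-1 cell proliferation, determined with a cell viability read-out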
Description: SANGER: Inhibition of human PA-1 cell growth in a cell viability assay.

SW872 = type: functional, cell-based, Homo sapiens; settings: Homo sapiens, SW872;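 also: growth inhibition of SW872 cells, read out by a viability assay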
Description: SANGER: Inhibition of human SW872 cell growth in a cell viability assay.

NOMO-1 = type: functional, cell-based; settings: Homo sapiens;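 also: growth inhibition of human NOMO-1 cells measured by a cell viability assay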
Description: SANGER: Inhibition of human NOMO-1 cell growth in a cell viability assay.

MPP-89 = type: functional, cell-based, Homo sapiens; settings: Homo sapiens, MPP-89;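 also: growth inhibition of human MPP-89 cells, read out with a cell viability assay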
Description: SANGER: Inhibition of human MPP-89 cell growth in a cell viability assay.

OCUB-M = type: functional, cell-based, Homo sapiens; settings: Homo sapiens, OCUB-M;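 also: growth inhibition of the cancer cell line, read out through a cell viability assay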
Description: SANGER: Inhibition of human OCUB-M cell growth in a cell viability assay.

LB771-HNC = type: functional, cell-based, Homo sapiens; settings: Homo sapiens, LB771-HNC;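 also: growth inhibition of LB771-HNC human cells, read out with a cell viability assay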
Description: SANGER: Inhibition of human LB771-HNC cell growth in a cell viability assay.

NCI-H23 = type: functional, cell-based, Homo sapiens; settings: Homo sapiens, NCI-H23;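 also: cell viability assay measuring growth inhibition of NCI-H23 cells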
Description: SANGER: Inhibition of human NCI-H23 cell growth in a cell viability assay.

HCC1419 = type: functional, cell-based, Homo sapiens; settings: Homo sapiens, HCC1419;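 also: growth inhibition of human HCC1419 cells, read out as cell viability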
Description: SANGER: Inhibition of human HCC1419 cell growth in a cell viability assay.

O=C1N=C(NCc2cccs2)S/C1=C\c1ccc2ncccc2c1
pIC50 (MZ2-MEL): < 5.30 | pIC50 (OVCAR-4): < 5.30 | pIC50 (NCI-H69): < 5.30 | pIC50 (ESS-1): < 5.30 | pIC50 (VM-CUB-1): < 5.30 | pIC50 (CAL-54): < 5.30 | pIC50 (A3-KAW): < 5.30 | pIC50 (HT-29): < 5.30 | pIC50 (DMS-273): < 5.30 | pIC50 (IST-MES1): < 5.30 | pIC50 (MHH-NB-11): < 5.30 | pIC50 (NCI-H1793): < 5.30 | pIC50 (SK-MEL-2): < 5.30 | pIC50 (MOLT-16): < 5.30 | pIC50 (P12-Ichikawa): < 5.30 | pIC50 (MN-60): 5.36 | pIC50 (SW837): < 5.30 | pIC50 5637: 5.51 | pIC50 (HOP-92): < 5.30 | pIC50 (KYSE-70 cell line): < 5.30 | pIC50 (H4): 5.94 | pIC50 (LB1047-RCC): 5.49 | pIC50 (KNS-81-FD): < 5.30 | pIC50 (HT1197): < 5.30 | pIC50 (DB): < 5.30 | pIC50 (D-502MG): < 5.30 | pIC50 (HPAF-II): < 5.30 | pIC50 (647-V): < 5.30 | pIC50 (A253 cell line): < 5.30 | pIC50 (ES6): < 5.30 | pIC50 (SK-MES-1): < 5.30 | pIC50 (TE-1): < 5.30 | pIC50 (SK-MEL-28): < 5.30 | pIC50 (UACC-893): < 5.30 | pIC50 (TGW): < 5.30 | pIC50 (BT-474): < 5.30 | pIC50 (NCI-H1581): < 5.30 | pIC50 (MeWo): < 5.30 | pIC50 (MIA PaCa-2): < 5.30 | pIC50 (NB6): < 5.30 | pIC50 (OVCAR-5): < 5.30 | pIC50 (SF-539): < 5.30 | pIC50 (PA-1): 5.91 | pIC50 (SW872): < 5.30 | pIC50 (NOMO-1): < 5.30 | pIC50 (MPP-89): < 5.30 | pIC50 (OCUB-M): < 5.30 | pIC50 (LB771-HNC): < 5.30 | pIC50 (NCI-H23): < 5.30 | pIC50 (HCC1419): < 5.30

COc1ccc(-c2ccc3c(N4CCOC[C@@H]4C)nc(N4CCOC[C@@H]4C)nc3n2)cc1CO [AZD-8055]
pIC50 (MZ2-MEL): 6.39 | pIC50 (OVCAR-4): 6.09 | pIC50 (NCI-H69): 5.78 | pIC50 (ESS-1): < 5.70 | pIC50 (VM-CUB-1): 6.33 | pIC50 (CAL-54): 5.74 | pIC50 (A3-KAW): 6.53 | pIC50 (HT-29): < 5.70 | pIC50 (DMS-273): 6.11 | pIC50 (IST-MES1): < 5.70 | pIC50 (MHH-NB-11): < 5.70 | pIC50 (NCI-H1793): 6.27 | pIC50 (SK-MEL-2): 6.19 | pIC50 (MOLT-16): 6.03 | pIC50 (P12-Ichikawa): 5.99 | pIC50 (MN-60): 6.17 | pIC50 (SW837): < 5.70 | pIC50 5637: 5.75 | pIC50 (HOP-92): < 5.70 | pIC50 (KYSE-70 cell line): 5.76 | pIC50 (H4): 6.22 | pIC50 (LB1047-RCC): 6.47 | pIC50 (KNS-81-FD): 5.72 | pIC50 (HT1197): < 5.70 | pIC50 (DB): 6.30 | pIC50 (D-502MG): < 5.70 | pIC50 (HPAF-II): 6.09 | pIC50 (647-V): 5.81 | pIC50 (A253 cell line): < 5.70 | pIC50 (ES6): 5.87 | pIC50 (SK-MES-1): 6.36 | pIC50 (TE-1): < 5.70 | pIC50 (SK-MEL-28): 6.25 | pIC50 (UACC-893): 6.03 | pIC50 (TGW): < 5.70 | pIC50 (BT-474): 5.75 | pIC50 (NCI-H1581): 6.72 | pIC50 (MeWo): 5.96 | pIC50 (MIA PaCa-2): 6.03 | pIC50 (NB6): < 5.70 | pIC50 (OVCAR-5): 6.37 | pIC50 (SF-539): 5.80 | pIC50 (PA-1): 6.47 | pIC50 (SW872): 5.86 | pIC50 (NOMO-1): < 5.70 | pIC50 (MPP-89): 6.33 | pIC50 (OCUB-M): 6.08 | pIC50 (LB771-HNC): < 5.70 | pIC50 (NCI-H23): 5.81 | pIC50 (HCC1419): 6.06
